Results taken from US20100144779A1, “Marine Alkalod Makaluvamines and Derivatives Thereof” (THE UAB RESEARCH FOUNDATION, priority 2007, published 2010).

Experiments:
p53 = test: Protein expression, Western blot in MCF-7 cells; format: cell-based, human; settings: 1 μM, 6 h (FIG. 4A)
How it was run: (§1)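 MCF-7 cells exposed to test compounds (1 μM or various concentrations) for 6 h or 24 h; equal protein lysates resolved by SDS-PAGE and immunoblotted with specific primary antibodies, HRP secondary and chemiluminescence. Band densitometry expressed relative to control.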

MDM2 = test: Protein expression, Western blot in MCF-7 cells; format: cell-based, human; settings: for expression of MDM2: 1 μM, 6 h (FIG. 4A)
How it was run: as §1

HCT-116 p53 −/− = test: Cell cycle progression (propidium iodide, flow cytometry); format: cell-based, human; settings: 48 hr; for G1 / G2/M / S: HCT-116 p53 −/−
Description: (§2) To determination of the effects of the disclosed compounds on the cell cycle, 2-3×10^5 cells were exposed to the test compounds (0-5 μM) and incubated for 48 hr prior to analysis (Table 6). Cells were trypsinized, washed with PBS and fixed in 1.5 mL 95% ethanol at 4° C. overnight, followed by incubation with RNAse and staining with propidium iodide (Sigma). The DNA content was determined by flow cytometry.

MCF7 = test: as above; format: cell-based, human; settings: 48 hr; for G1 / G2/M / S: MCF7
Description: as §2

HCT116 = test: as above; format: cell-based, human; settings: 48 hr; for G1 / G2/M / S: HCT116
Description: as §2

[1] = tested on: different cancer cell lines; test: Induction of apoptosis (annexin V-FITC); format: cell-based, human; settings: annexin V-FITC/PI; 0.1-25 μM, 48 hr; effect in the 1-10 μM range
Description: Cells in early and late stages of apoptosis were detected with an annexin V-FITC apoptosis detection kit from BioVision (Mountain View, Calif.). In brief, cells were exposed to the test compounds (0, 0.1, 1, 10, 25 μM) and incubated for 48 hr prior to analysis. Media and cells were collected and washed with serum-free media. Cells were then re-suspended in 500 μL of Annexin V binding buffer followed by addition of 5 μL Annexin VFITC and 5 μL of propidium iodide (PI). The samples were incubated in the dark for 5 min at room temperature prior to analysis. […] Cells that were positive for Annexin V-FITC alone (early apoptosis) and Annexin V-FITC and PI (late apoptosis) were counted.

cdc25c = test: Protein expression, Western blot in MCF-7 cells; format: cell-based, human; settings: 24 h (FIG. 4B)
Description: (§3) In FIG. 4A, MCF-7 cells were exposed to 1 μM concentration of the indicated compounds for 6 hours. Western blots were probed with antibodies specific for the proteins indicated. Numbers below each lane show densitometry readings for each lane as compared to control. In FIG. 4B, MCF-7 cells were exposed to the indicated concentration of compound 28 and incubated for 24 hours. Western blots were probed with antibodies specific for the proteins indicated.
(§4) To determine the disclosed compounds effect on protein expression in human breast cancer cells, cultured MCF-7 cells were exposed to various concentrations of the test compounds for 6 h (FIG. 4A) or 24 h (FIG. 4B). Cell lysates were fractionated with identical amounts of protein by SDS-PAGE and transferred to Bio-Rad trans-Blot nitrocellulose membranes (Bio-Rad Laboratories, Hercules, Calif.). The nitrocellulose membrane was incubated in blocking buffer (Tris-buffered saline containing 0.1% Tween 20 and 5% nonfat milk) for 1 h at room temperature, then with the appropriate primary antibody overnight at 4° C. or 2 h at room temperature with gentle shaking. Finally, the membrane was washed three times with the washing buffer (Tris-buffered saline containing 0.1% Tween 20) for 15 min, incubated with goat anti mouse/rabbit IgG-horseradish peroxidase-conjugated antibody (Bio-Rad) for 1 h at room temperature, and washed again (in triplicate). The protein of interest was detected by enhanced chemiluminescence reagents from PerkinElmer LAS, Inc (Boston, Mass.).

cdc2 = test: Protein expression, Western blot in MCF-7 cells; format: cell-based, human; settings: 24 h (FIG. 4B)
Description: as §3, §4

cleaved PARP = test: Protein expression, Western blot in MCF-7 cells; format: cell-based, human; settings: 24 h (FIG. 4B)
Description: as §3, §4

E2F1 = test: Protein expression, Western blot in MCF-7 cells; format: cell-based, human; settings: 24 h (FIG. 4B)
Description: as §3, §4

[2] = tested on: female, athymic nude mice; settings: 8, 20 or 40 mg/kg intra-peritoneally, 1 time per week for 3 weeks
Description: To evaluate the potential toxicity of the makaluvamine compounds disclosed, compound 4c was identified for testing in a mouse model. […] Four groups of 5 female, athymic nude mice (Federick Cancer Research, Rockville, Md.) were injected intra-peritoneally, at doses of 8, 20 or 40 mg/kg of compounds 4c (treatment group) or vehicle only (control group). […] Compound 4c was injected at its respective dose in a 200 μl volume of saline:DMSO (100 μl:100 μl). The vehicle only group was injected with 200 μl saline:DMSO. Injections were given 1 time per week for 3 weeks. […] Mice in each groups were evaluated for survival and weight gain/loss during the treatment period.

What does the source list for `COc1ccc(CCNC2=CC3=NCCc4c[nH]c(c43)C2=O)cc1OC.O=C(O)C(F)(F)F` [Compound 20]?
expression of p53 (p53): decreased the expression; expression of MDM2 (MDM2): inhibited the expression

Which “expression of p53” value (p53) does the source give for `O=C(O)C(F)(F)F.O=C1C(NCCc2ccc3c(c2)OCO3)=CC2=NCCc3c[nH]c1c32` [Compound 6] here?
Its value is “increased the expression”.

For `O=C(O)C(F)(F)F.O=C1C(NCc2ccc(F)cc2)=CC2=NCCc3c[nH]c1c32` [Compound 28], which G1 (HCT-116 p53 −/−; 0.5 μM) is on record?
Its G1 is 28.18.

What about the G2/M (HCT-116 p53 −/−; 0.5 μM) of the same molecule?
Its G2/M is 49.02.

And the S (HCT-116 p53 −/−; 0.5 μM)?
Its S is 22.80.

And the G1 (HCT-116 p53 −/−; 1 μM)?
The G1 was 25.59.

And the G2/M (HCT-116 p53 −/−; 1 μM)?
Its G2/M is 45.20.

What about the S (HCT-116 p53 −/−; 1 μM) of the same molecule?
The S was 29.21.

And the cell cycle arrest (HCT-116 p53 −/−; colon cancer HCT116 p53−/−, dose-dependent)?
The cell cycle arrest was “cell cycle arrest in the S and G2/M phase”.

And the G1 (MCF7; 0.1 μM)?
The G1 was 75.10.

And the G2/M (MCF7; 0.1 μM)?
The G2/M was 17.53.

And the S (MCF7; 0.1 μM)?
Its S is 7.37.

And the G1 (MCF7; 0.5 μM)?
The G1 was 51.97.

And the G2/M (MCF7; 0.5 μM)?
The G2/M was 20.17.

What about the S (MCF7; 0.5 μM) of the same molecule?
The S was 27.86.

What about the G1 (MCF7; 1 μM) of the same molecule?
The G1 was 53.96.

What about the G2/M (MCF7; 1 μM) of the same molecule?
Its G2/M is 16.21.

What about the S (MCF7; 1 μM) of the same molecule?
The S was 29.82.

What about the cell cycle arrest (MCF7; breast cancer (MCF-7), dose-dependent, 0-5 μM) of the same molecule?
The cell cycle arrest was “cell cycle arrest in the S phase”.

What about the G1 (HCT116; 0.5 μM) of the same molecule?
The G1 was 31.82.

What about the G2/M (HCT116; 0.5 μM) of the same molecule?
Its G2/M is 45.04.

And the S (HCT116; 0.5 μM)?
The S was 23.14.

And the G1 (HCT116; 1 μM)?
The G1 was 28.40.

What about the G2/M (HCT116; 1 μM) of the same molecule?
Its G2/M is 38.17.

And the S (HCT116; 1 μM)?
Its S is 33.43.

What about the cell cycle arrest (HCT116; colon cancer HCT116, dose-dependent) of the same molecule?
The cell cycle arrest was “cell cycle arrest in the S and G2/M phase”.

And the induction of apoptosis [1]?
The induction of apoptosis was “significant induction of apoptosis”.

What about the “expression level of cdc25c” value (cdc25c) of the same molecule?
The value was “decreased”.

What about the “expression level of cdc2” value (cdc2) of the same molecule?
The value was “decreased”.

And the “expression of cleaved PARP” value (cleaved PARP)?
The value was “increased expression”.

What about the “expression level of E2F1” value (E2F1) of the same molecule?
Its value is “decreased”.

And the “expression of p53” value (p53)?
Its value is “decreased the expression”.

What about the “expression of MDM2” value (MDM2) of the same molecule?
Its value is “inhibited the expression”.

And the “expression level of MDM2” value (MDM2; 24 h (FIG. 4B))?
The value was “decreased”.

With `O=C1C(NCCc2ccccc2)=CC2=NCCc3c[nH]c1c32` [Compound 4d] as the molecule, how does the “expression of p53” value (p53) read?
The value was “increased the expression”.

What about the “expression of MDM2” value (MDM2) of the same molecule?
Its value is “increased the expression”.

`O=C1C(NCc2ccccc2)=CC2=NCCc3c[nH]c1c32` [Compound 4c] was tested. Which induction of apoptosis [1] did it give?
The induction of apoptosis was “significant induction of apoptosis”.

And the “weight changes between treatment groups” value [2]?
Its value is “No significant weight changes”.

And the “weight gain/loss during the treatment period” value [2]?
The value was “all mice gained weight”.

And the survival ([2]; observed 21 days)?
The survival was 100%.

What about the “expression of p53” value (p53) of the same molecule?
Its value is “increased the expression”.

What about the “expression of MDM2” value (MDM2) of the same molecule?
The value was “inhibited the expression”.
